1 molecule from US20090123518A1, “Biodegradable implants with controlled bulk density” (priority 2007, published 2009) can be followed below.

This series is described as follows: Osmotic pressure of the drug in water. The format is physicochemical. The settings on record: in water at room temperature. From the text: As an example of this discovery, the inventors selected leuprolide acetate as a sample compound. The inventors then experimentally determined that the osmotic pressure of leuprolide acetate in water is approximately 5 atmospheres at room temperature.
“Osmotic pressure of the drug” means the pressure that must be applied to a solution to prevent the net flow of solvent molecules (such as water) through a semipermeable membrane from a solution of lower drug concentration to a solution of higher drug concentration. The osmotic pressure of the drug can be experimentally determined with use of a vapor pressure osmometer, such as the Vapro® vapor pressure osmometer.

Turning to `CCNC(=O)[C@@H]1CCCN1C(=O)[C@H](CCCNC(=N)N)NC(=O)[C@H](CC(C)C)NC(=O)[C@@H](CC(C)C)NC(=O)[C@H](Cc1ccc(O)cc1)NC(=O)[C@H](CO)NC(=O)[C@H](Cc1c[nH]c2ccccc12)NC(=O)[C@H](Cc1c[nH]cn1)NC(=O)[C@@H]1CCC(=O)N1` [leuprolide acetate], the osmotic pressure result is given as “approximately 5 atmospheres”.
